According to PubChem BioAssay (NCI):
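Cultured in 96-well plates, cells were exposed to test compound for 48 hours across five concentrations. Here, GI50 denotes the concentration required for 50% inhibition of growth. TGI is the concentration that stops growth completely.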

Key:
Test in all cases: NCI anticancer screen, dose series, 48 h
NCI-H460 lung = tested on: NCI-H460 lung
A498 renal = tested on: A498 renal
IGROV1 ovarian = tested on: IGROV1 ovarian
M14 melanoma = tested on: M14 melanoma
UO-31 renal = tested on: UO-31 renal
BT-549 breast = tested on: BT-549 breast
COLO 205 colon = tested on: COLO 205 colon
MDA-N = tested on: MDA-N
RXF 393 renal = tested on: RXF 393 renal
SK-OV-3 ovarian = tested on: SK-OV-3 ovarian
MALME-3M melanoma = tested on: MALME-3M melanoma

| SMILES | TGI (NCI-H460 lung) [µM] | TGI (A498 renal) [µM] | TGI (IGROV1 ovarian) [µM] | TGI (M14 melanoma) [µM] | TGI (UO-31 renal) [µM] | TGI (BT-549 breast) [µM] | TGI (COLO 205 colon) [µM] | TGI (MDA-N) [µM] | TGI (RXF 393 renal) [µM] | TGI (SK-OV-3 ovarian) [µM] | TGI (MALME-3M melanoma) [µM] | GI50 (NCI-H460 lung) [µM] | GI50 (A498 renal) [µM] | GI50 (IGROV1 ovarian) [µM] | GI50 (M14 melanoma) [µM] | GI50 (UO-31 renal) [µM] | GI50 (BT-549 breast) [µM] | GI50 (COLO 205 colon) [µM] | GI50 (RXF 393 renal) [µM] | GI50 (MALME-3M melanoma) [µM] |
| --- | --- | --- | --- | --- | --- | --- | --- | --- | --- | --- | --- | --- | --- | --- | --- | --- | --- | --- | --- | --- |
| CC1=NN(c2nc(N)nc(NS(=O)(=O)c3cc(C)c(Cl)cc3S)n2)C(C)(C)C1 | > 10 | > 10 | > 10 | > 10 | > 10 | > 10 | > 10 | > 10 | > 10 | > 10 | > 10 | – | – | – | – | – | – | – | – | – |
| CC1=NN=C(C)C1N=Nc1ccc2nc(C)[nH]c2c1 | > 100 | 38.2 | 29.7 | > 100 | 77.5 | > 100 | > 100 | > 100 | 55.5 | 24.2 | > 50.5 | – | – | – | – | – | – | – | – | – |
| Cn1c(=O)c2[nH]c(N=O)nc2n(C)c1=O | > 100 | > 100 | > 100 | > 100 | > 100 | > 100 | > 100 | > 100 | > 100 | > 100 | > 100 | – | – | – | – | – | – | – | – | – |
| CCOC(=O)c1c[nH]c(C(=O)OCC)c1-c1cccn1-c1ccccc1 | 65.5 | 86.2 | 51.9 | 41.9 | 77.4 | > 100 | 38.5 | 99.2 | 43 | 90.6 | 56.4 | – | – | – | – | – | – | – | – | – |
| Brc1ccc(C2C3CSc4ccccc4C3=NN2c2ccccc2)cc1 (centres undefined) | > 100 | > 100 | > 100 | > 100 | > 100 | > 100 | > 100 | > 100 | > 100 | > 100 | > 100 | – | – | – | – | – | – | – | – | – |
| NS(=O)(=O)c1ccc(NC(=O)N/N=C/c2ccccc2O)cc1 | > 100 | > 100 | > 100 | > 100 | > 100 | > 100 | > 100 | 70.2 | > 100 | > 100 | > 100 | – | – | – | – | – | – | – | – | – |
| COC1(CC[C@@H](C)COC2OC(CO)C(O)C(O)C2O)O[C@H]2C[C@H]3[C@@H]4CC=C5C[C@@H](OC6OC(CO)C(OC7OC(C)C(O)C(O)C7O)C(O)C6OC6OC(C)C(O)C(O)C6O)CC[C@]5(C)[C@H]4CC[C@]3(C)[C@H]2[C@@H]1C (some centres undefined) | 5.43 | 9.76 | 7.16 | 8.42 | 5.2 | 6.81 | 19.2 | 7.43 | 5.45 | 3.09 | 5.09 | 1.62 | 3.86 | 2.5 | 1.58 | 1.69 | 2.58 | 2.99 | 1.92 | 1.96 |
| C[C@@H](CC(O)C(O)C(C)(C)O)C1CCC23CC12CCC1[C@@]2(C)CCC(O)C(C)(C)C2CC(OC2OC(CO)C(O)C(O)C2O)[C@]13C (some centres undefined) | > 10 | > 10 | > 10 | > 10 | > 10 | > 10 | > 10 | > 10 | > 10 | > 10 | > 10 | – | – | – | – | – | – | – | – | – |
| CC(CSC(=N)N)C(N)=O (centres undefined) | > 100 | > 100 | > 100 | > 100 | > 100 | > 100 | > 100 | > 100 | > 100 | > 100 | > 100 | – | – | – | – | – | – | – | – | – |
| COc1ccc(C(O)/C(=N/N)c2nc3ccc(Cl)cc3[nH]c2=O)cc1 (centres undefined) | > 100 | > 100 | > 100 | > 100 | > 100 | > 100 | > 100 | > 100 | > 100 | > 100 | > 100 | – | – | – | – | – | – | – | – | – |
| O=C1Oc2ccccc2C1C/C(=N\Nc1ccccc1)c1ccccc1O (centres undefined) | > 100 | > 100 | > 100 | > 100 | 77.6 | > 100 | 32.8 | > 100 | > 100 | > 100 | > 100 | – | – | – | – | – | – | – | – | – |
| CC(=O)CCCCn1c(=O)c2c(nc(Br)n2C)n(C)c1=O | > 100 | > 100 | > 100 | > 100 | > 100 | > 100 | > 100 | > 100 | > 100 | > 100 | > 100 | – | – | – | – | – | – | – | – | – |
| C[C@]12C=CC(=O)C=C1CC[C@@H]1[C@@H]2CC[C@@]2(C)[C@H]1CC[C@]2(O)C(N)=O | > 100 | > 100 | > 100 | > 100 | > 100 | > 100 | > 100 | > 100 | > 100 | > 100 | > 100 | – | – | – | – | – | – | – | – | – |
| O=C(O)c1nc2ccccc2nc1Nc1ccc(Cl)c(Cl)c1 | 82.5 | 41.6 | > 100 | 82 | 33.6 | 61.4 | 82.6 | > 100 | 69.3 | 88.1 | > 100 | – | – | – | – | – | – | – | – | – |
| CSc1ncnc2c1cnn2Cc1cn(COCCO)nn1 | > 100 | > 100 | > 100 | > 100 | > 100 | > 100 | > 100 | 39.6 | > 100 | > 100 | > 100 | – | – | – | – | – | – | – | – | – |
